Molecules are shown by their SMILES.

The values below come from patent US11612595B2, “Compositions and methods for treating rheumatoid arthritis” (Generos Biopharma Ltd., priority 2017, dated 2023).

The target in one series is T1, SH2 domain of STAT1 (Homo sapiens, UniProt P42224).
T1 sequence (P42224 1-750): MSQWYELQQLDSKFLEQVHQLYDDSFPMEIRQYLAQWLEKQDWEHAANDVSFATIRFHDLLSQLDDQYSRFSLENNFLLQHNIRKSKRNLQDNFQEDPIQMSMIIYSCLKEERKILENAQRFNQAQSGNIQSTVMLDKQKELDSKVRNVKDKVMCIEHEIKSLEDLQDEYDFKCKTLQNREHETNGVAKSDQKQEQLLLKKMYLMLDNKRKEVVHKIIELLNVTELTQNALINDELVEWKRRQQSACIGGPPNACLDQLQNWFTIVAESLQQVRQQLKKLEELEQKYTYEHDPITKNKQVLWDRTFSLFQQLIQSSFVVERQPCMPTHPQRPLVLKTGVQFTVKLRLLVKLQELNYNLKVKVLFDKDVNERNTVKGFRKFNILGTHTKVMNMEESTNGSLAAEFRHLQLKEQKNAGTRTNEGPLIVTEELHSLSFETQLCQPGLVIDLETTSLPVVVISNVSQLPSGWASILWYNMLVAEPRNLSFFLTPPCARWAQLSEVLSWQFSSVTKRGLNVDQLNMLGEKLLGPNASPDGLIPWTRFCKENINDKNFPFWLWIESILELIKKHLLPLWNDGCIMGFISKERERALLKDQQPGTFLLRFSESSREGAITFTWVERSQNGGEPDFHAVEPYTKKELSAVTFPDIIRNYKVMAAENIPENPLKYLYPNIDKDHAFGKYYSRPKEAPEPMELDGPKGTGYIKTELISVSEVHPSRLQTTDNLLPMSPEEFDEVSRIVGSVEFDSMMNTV
The settings on record: read-out: IC50 towards the SH2 domain of STAT1; cited from earlier work.

For the next series, the target named is SH2 domain of STAT3 (Homo sapiens, UniProt P40763). The settings on record: read-out: IC50 towards the SH2 domain of STAT3; cited from earlier work.
Sequence of SH2 domain of STAT3 (P40763 whole entry, the tested form may be a part): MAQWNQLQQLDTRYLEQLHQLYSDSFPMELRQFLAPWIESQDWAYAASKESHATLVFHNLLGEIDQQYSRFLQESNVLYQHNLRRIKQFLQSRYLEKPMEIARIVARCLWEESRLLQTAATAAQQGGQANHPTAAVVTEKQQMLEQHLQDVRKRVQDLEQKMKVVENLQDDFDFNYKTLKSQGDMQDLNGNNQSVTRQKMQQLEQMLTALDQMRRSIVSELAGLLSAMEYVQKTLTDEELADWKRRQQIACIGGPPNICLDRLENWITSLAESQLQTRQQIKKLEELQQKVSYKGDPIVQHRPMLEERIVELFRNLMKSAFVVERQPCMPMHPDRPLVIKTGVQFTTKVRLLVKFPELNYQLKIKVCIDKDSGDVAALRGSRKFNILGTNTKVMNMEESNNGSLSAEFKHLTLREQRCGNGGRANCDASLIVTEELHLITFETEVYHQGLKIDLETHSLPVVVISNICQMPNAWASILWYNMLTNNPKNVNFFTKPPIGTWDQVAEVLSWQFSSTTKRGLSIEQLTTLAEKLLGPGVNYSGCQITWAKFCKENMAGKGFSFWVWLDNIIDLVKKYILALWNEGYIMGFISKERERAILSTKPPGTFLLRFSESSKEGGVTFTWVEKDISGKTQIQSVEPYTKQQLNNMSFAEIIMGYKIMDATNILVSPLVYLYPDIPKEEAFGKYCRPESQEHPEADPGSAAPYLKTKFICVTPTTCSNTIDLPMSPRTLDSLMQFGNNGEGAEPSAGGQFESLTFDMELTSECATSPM
Another series addresses T2, STAT1 (Homo sapiens, UniProt P42224).
T2 sequence (P42224 1-750): T1 sequence (P42224 1-750)
The settings on record: K562 cells, 10 μM 1 h pretreatment; cited from earlier work.

A short description of series [1]: weight changes in rat AIA model. Type of series: in vivo, rats. As for the experimental part:
FIG. 4 is a graph depicting weight changes in four groups of rat AIA models under different treatment schemes. Vehicle refers to the group of AIA model rats treated with DMSO. Therapeutic refers to the group of AIA model rats treated with pimozide (Sigma-Aldrich) 10 mg/kg in 30% PEG300 solution starting from day 13. Prophylactic refers to the group of AIA model rats treated with pimozide (Sigma-Aldrich) 10 mg/kg in 30% PEG300 solution starting from day 0. Normal refers to the group of rats without AIA model inducement.
Three groups (10 rats in each group) of female rats (age 8 weeks) were subject to AIA model induction and then to different treatment schemes. Specifically, 100 ug mBSA mixed with CFA was injected s.c. to flank near tail, and one dose of B. pertusiss was injected i.p. the next day to boost the immune reaction. The first of the three groups of rats were treated with DMSO (Vehicle). The second of the three groups of rats were treated with pimozide (Sigma-Aldrich) 10 mg/kg of body weight (same unit are used throughout this application) in 30% PEG300 solution via intraperitoneal injection with collagen injection starting from day 7 (Therapeutic). The last of the three groups of rats were treated with pimozide (Sigma-Aldrich) 10 mg/kg in 30% PEG300 solution via intraperitoneal injection either with collagen injection starting from day 0. […]

The next series has as its system AIA mouse model. Kind of series: AIA mouse model (mBSA-induced knee arthritis). Type of series: in vivo, mice (C57BL/6). To be noted: 10 mg/kg intraperitoneal. As for the experimental part: This example describes a method of RA treatment with pimozide in a AIA mouse model. The right knees of fourteen mice (C57BL/6) were immunized with mBSA injection on the right knee to induce arthritis, while the left knees were used as control. Nine of the mice was then treated with pimozide. Specifically, pimozide was dissolved in DMSO at a concentration of 50 mg/ml, and then diluted in 30% PEG300 (Sigma) for intraperitoneal injection at 10 mg/kg dose. The remaining five mice were treated with vehicle DMSO that is diluted in 30% PEG300 for intraperitoneal injection. After 7 days, the mice were sacrificed and knees were dissected and fixed in 10% formalin and decalcified in 5% formic acid before dehydration and embedding in paraffin followed by standard hematoxylin and eosin (H&E) stain procedure.

`O=C(N/N=C/c1coc2ccccc2c1=O)c1cccnc1` [nicotinohydrazide, N′-((4-Oxo-4H-chromen-3-yl)methylene)nicotinohydrazide]: the IC50 at SH2 domain of STAT1 and on SH2 domain of STAT3 was above 500 µM in each case.
On to `O=c1[nH]c2ccccc2n1C1CCN(CCCC(c2ccc(F)cc2)c2ccc(F)cc2)CC1` [pimozide, 1-[1-[4,4-bis(4-fluorophenyl)butyl]-4-piperidinyl]-1,3-dihydro-2H-benzimidazole-2-one], for which the “IFNα-stimulated STAT1 phosphorylation” value on STAT1 is reported as “little activity”. Further, the “weight changes vs Vehicle” value in series [1] (Prophylactic group, 10 mg/kg i.p. from day 0, at each time point) was “No significant difference”; in series [1] (Therapeutic group, 10 mg/kg i.p., at each time point), “No significant difference”. Further, the “infiltration of immune cells in knee cavity (H&E staining)” value in the series with AIA mouse model (after 7 days, vs vehicle) is on record as “reduced infiltration of immune cells”. Further, in the series on AIA mouse model (vs vehicle group), the “knee diameter differences (right knee vs left knee)” value is reported as “significantly smaller”.
